Test results from patent US20260042764A1, “COMPOSITIONS AND METHODS FOR INHIBITION OF KRAS” (TheRas, Inc., priority 2022, published 2026).

Legend:
[1] = target: T1, Avi-KRAS G12D (1-169) GppNHp/RAF1 RBD-3xFLAG (52-151) (Homo sapiens, UniProt P01116, G12D); experiment: Raf1-KRAS G12D-GppNHP disruption HTRF assay (Biological Example 1); assay type: binding
T1 construct: Avi-KRAS G12D (1-169)
Procedure, shortened: (§1)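 Compounds were tested for disruption of KRAS–RAF1 RBD binding by HTRF in 50 mM Tris pH 7.5, 100 mM NaCl, 5 mM MgCl2, 0.1% BSA, 0.01% Tween, 10% DMSO. Protein mix was incubated 1 h at room temperature with shaking, then detection reagents added for another 1 h. Activity expressed as percent of DMSO control.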

[2] = target: T2, Avi-KRAS G12R (1-169) GppNHp/RAF1 RBD-3xFLAG (52-151) (Homo sapiens, UniProt P01116, G12R); experiment: Raf1-KRAS G12R-GppNHP disruption HTRF assay (Biological Example 1); assay type: binding
T2 construct: Avi-KRAS G12R (1-169)
Procedure, shortened: as §1

[3] = target: T3, Avi-KRAS G12V (1-169) GppNHp/RAF1 RBD-3xFLAG (52-151) (Homo sapiens, UniProt P01116, G12V); experiment: Raf1-KRAS G12V-GppNHP disruption HTRF assay (Biological Example 1); assay type: binding
T3 construct: Avi-KRAS G12V (1-169)
Procedure, shortened: as §1

[4] = target: T4, Avi-KRAS WT (1-169) GppNHp/RAF1 RBD-3xFLAG (52-151) (Homo sapiens, UniProt P01116); experiment: Raf1-KRAS WT-GppNHP disruption HTRF assay (Biological Example 1); assay type: binding
T4 construct: Avi-KRAS WT (1-169)
Procedure, shortened: as §1

GP2d cells (KRAS G12D) = experiment: Cell-based pERK HTRF assay in GP2d cell (Biological Example 2); details: GP2d (KRAS G12D) cells, pERK HTRF
Procedure, shortened: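 GP2d (KRAS G12D) cells were plated in DMEM/10% FBS and treated the next day for 60 min with compounds. Dosing used 9-point half-log series starting at 1 μM or 100 nM in 0.25% DMSO. Lysates were read by HTRF pERK (d2/Eu cryptate antibodies) after 4–24 h at room temperature, with excitation at 320 nm and emission at 615 nm.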

SW620 cells (KRAS G12V) = experiment: Cell-based pERK HTRF assay in SW620 cell (Biological Example 4); details: pERK HTRF
Procedure, shortened: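 This assay measures inhibition of ERK phosphorylation downstream of KRAS G12V in intact SW620 cells. Compounds are applied for 4 h over nine half-log concentrations starting at 1 μM, and pERK is quantified by HTRF.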

[5] = Homo sapiens, SW-620, SW620 (KRAS G12V) cells
[6] = KRAS G12D, GppNHp-loaded, Table 11
[7] = KRAS G12R, GppNHp-loaded, Table 11
[8] = KRAS G12V, GppNHp-loaded, Table 11
[9] = KRAS WT, GppNHp-loaded, Table 11
[10] = KRAS G12D, GppNHp-loaded, class symbols
[11] = KRAS G12R, GppNHp-loaded, class symbols
[12] = KRAS G12V, GppNHp-loaded, class symbols
[13] = KRAS WT, GppNHp-loaded, class symbols
[14] = Homo sapiens, SW-620, SW620 (KRAS G12V) cells, class symbols

T1 sequence (P01116 1-169 isoform P01116-2 G12D): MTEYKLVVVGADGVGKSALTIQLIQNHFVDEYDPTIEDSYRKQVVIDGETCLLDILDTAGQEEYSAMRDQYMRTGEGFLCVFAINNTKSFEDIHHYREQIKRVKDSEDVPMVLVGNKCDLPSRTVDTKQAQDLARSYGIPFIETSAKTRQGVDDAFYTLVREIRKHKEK
T4 sequence (P01116 1-169 isoform P01116-2): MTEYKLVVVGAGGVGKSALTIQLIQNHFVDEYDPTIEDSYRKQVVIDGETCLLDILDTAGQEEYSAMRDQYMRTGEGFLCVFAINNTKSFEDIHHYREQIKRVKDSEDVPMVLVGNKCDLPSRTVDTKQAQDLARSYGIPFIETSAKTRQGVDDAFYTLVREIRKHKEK
T2 sequence (P01116 1-169 isoform P01116-2 G12R): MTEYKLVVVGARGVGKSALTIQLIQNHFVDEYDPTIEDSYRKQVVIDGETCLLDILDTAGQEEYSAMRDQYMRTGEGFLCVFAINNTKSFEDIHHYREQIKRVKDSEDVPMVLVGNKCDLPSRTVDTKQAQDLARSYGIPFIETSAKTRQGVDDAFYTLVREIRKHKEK
T3 sequence (P01116 1-169 isoform P01116-2 G12V): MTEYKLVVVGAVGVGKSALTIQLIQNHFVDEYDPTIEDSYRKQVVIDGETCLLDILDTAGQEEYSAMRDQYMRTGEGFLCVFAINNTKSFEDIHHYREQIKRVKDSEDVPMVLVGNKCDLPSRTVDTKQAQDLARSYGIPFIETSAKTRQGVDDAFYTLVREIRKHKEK

| Structure (SMILES) | IC50 ([1]; KRAS G12D-GppNHp/RAF1 RBD HTRF) [µM] | IC50 ([2]; KRAS G12R-GppNHp/RAF1 RBD HTRF) [µM] | IC50 ([3]; KRAS G12V-GppNHp/RAF1 RBD HTRF) [µM] | IC50 ([4]; KRAS WT-GppNHp/RAF1 RBD HTRF) [µM] | IC50 (GP2d cells (KRAS G12D); GP2d) [µM] | IC50 (SW620 cells (KRAS G12V); [5]) [µM] | other results |
| --- | --- | --- | --- | --- | --- | --- | --- |
| C[C@@H]1[C@H](N(C)c2nc(OC[C@@]34CCCN3C[C@H](F)C4)nc3c(F)c(-c4ccc(F)c5sc(N)c(C#N)c45)c(C(F)(F)F)cc23)CCN1C(=O)C1(C#N)CC1 [Compound 325] | 0.1 to 1 | 0.1 to 1 | 0.1 to 1 | 0.1 to 1 | < 0.1 | < 0.1 | – |
| N#Cc1c(N)sc2c(F)ccc(-c3c(C(F)(F)F)cc4c(N5CCCC(O)CC5)nc(OC[C@@]56CCCN5C[C@H](F)C6)nc4c3F)c12 (stereo partly drawn) [Compound 267] | – | – | – | – | < 0.1 | < 0.1 | IC50 [1, 6]: < 0.1 µM; IC50 [2, 7]: < 0.1 µM; IC50 [3, 8]: 0.1 to 1 µM; IC50 [4, 9]: 0.1 to 1 µM |
| CN(C)C(=O)c1nc2n(n1)CCN(c1nc(OC[C@@]34CCCN3C[C@H](F)C4)nc3c(F)c(-c4ccc(F)c5sc(N)c(C#N)c45)c(C(F)(F)F)cc13)C2 [Compound 356] | < 0.1 | 0.1 to 1 | 0.1 to 1 | 0.1 to 1 | < 0.1 | < 0.1 | – |
| C[C@H]1Cn2nnc(C#N)c2CN1c1nc(OC[C@@]23CCCN2C[C@H](F)C3)nc2c(F)c(-c3ccc(F)c4sc(N)c(C#N)c34)c(C(F)(F)F)cc12 (atropisomer, axis not shown) [Compound 625] | – | – | – | – | – | – | IC50 [1, 10]: 0.1 to 1 µM; IC50 [2, 11]: 1 to 10 µM; IC50 [3, 12]: 1 to 10 µM; IC50 [4, 13]: 1 to 10 µM; IC50 (GP2d cells (KRAS G12D); GP2d, class symbols): < 0.1 µM; IC50 (SW620 cells (KRAS G12V); [14]): < 0.1 µM |
| CC(C)C(=O)N1C[C@@H](N(C)c2nc(OC[C@@]34CCCN3C[C@H](F)C4)nc3c(F)c(-c4ccc(F)c5sc(N)c(C#N)c45)c(C(F)(F)F)cc23)C[C@H]1C [Compound 448] | 0.1 to 1 | 1 to 10 | 1 to 10 | 0.1 to 1 | < 0.1 | 0.1 to 1 | – |
| CCN(c1nc(OC[C@@]23CCCN2C[C@H](F)C3)nc2c(F)c(-c3ccc(F)c4sc(N)c(C#N)c34)c(C(F)(F)F)cc12)[C@H]1CCN(C(=O)[C@@H](C)OC)C1 (atropisomer, axis not shown) [Compound 570] | – | – | – | – | – | – | IC50 [1, 10]: < 0.1 µM; IC50 [2, 11]: < 0.1 µM; IC50 [3, 12]: < 0.1 µM; IC50 [4, 13]: < 0.1 µM; IC50 (GP2d cells (KRAS G12D); GP2d, class symbols): < 0.1 µM; IC50 (SW620 cells (KRAS G12V); [14]): < 0.1 µM |
| CN(c1nc(OC[C@@]23CCCN2C[C@H](F)C3)nc2c(F)c(-c3ccc(F)c4sc(N)c(C#N)c34)c(C(F)(F)F)cc12)[C@H]1CCS(=O)(=O)C1 (single isomer, unassigned) [Compound 221] | – | – | – | – | – | – | IC50 [1, 6]: 0.1 to 1 µM; IC50 [2, 7]: 0.1 to 1 µM; IC50 [3, 8]: 0.1 to 1 µM; IC50 [4, 9]: 0.1 to 1 µM; IC50 (GP2d cells (KRAS G12D)): < 0.1 µM; IC50 (SW620 cells (KRAS G12V); SW620 (KRAS G12V) cells): < 0.1 µM |

Second part, led by results:

| IC50 ([1]; KRAS G12D-GppNHp/RAF1 RBD HTRF) [µM] | IC50 ([2]; KRAS G12R-GppNHp/RAF1 RBD HTRF) [µM] | IC50 ([3]; KRAS G12V-GppNHp/RAF1 RBD HTRF) [µM] | IC50 ([4]; KRAS WT-GppNHp/RAF1 RBD HTRF) [µM] | IC50 (GP2d cells (KRAS G12D); GP2d) [µM] | IC50 (SW620 cells (KRAS G12V); [5]) [µM] | Structure (SMILES) | other results |
| --- | --- | --- | --- | --- | --- | --- | --- |
| 0.1 to 1 | 0.1 to 1 | 0.1 to 1 | 0.1 to 1 | < 0.1 | < 0.1 | CCN(c1nc(OC[C@@]23CCCN2C[C@H](F)C3)nc2c(F)c(-c3ccc(F)c4sc(N)c(C#N)c34)c(C(F)(F)F)cc12)[C@@H]1CCN(C(=O)OC)C1 [Compound 396] | – |
| < 0.1 | < 0.1 | 0.1 to 1 | 0.1 to 1 | < 0.1 | < 0.1 | CCN(c1nc(OC[C@@]23CCCN2C[C@H](F)C3)nc2c(F)c(-c3ccc(F)c4sc(N)c(C#N)c34)c(C(F)(F)F)cc12)[C@H]1CCN(C(=O)OC(C)C)C1 (atropisomer, axis not shown) [Compound 556] | – |
| 0.1 to 1 | 0.1 to 1 | 1 to 10 | 0.1 to 1 | – | – | N#Cc1c(N)sc2c(F)ccc(-c3c(C(F)(F)F)cc4c(N5CCN6C(=O)CCC6C5)nc(OCC56CCCN5CC(F)C6)nc4c3F)c12 (stereo not drawn) [Compound 430] | IC50 (GP2d cells (KRAS G12D)): < 0.1 µM; IC50 (SW620 cells (KRAS G12V); SW620 (KRAS G12V) cells): < 0.1 µM |
| < 0.1 | < 0.1 | < 0.1 | < 0.1 | < 0.1 | < 0.1 | CCN(c1nc(OC[C@@]23CCCN2C[C@H](F)C3)nc2c(F)c(-c3ccc(F)c4sc(N)c(C#N)c34)c(C(F)(F)F)cc12)[C@H]1CCN(C(=O)c2ccno2)C1 (atropisomer, axis not shown) [Compound 552] | – |
